Measurements: patent US8372867B2, “Insecticidal aryl isoxazoline derivatives” (Bayer CropScience AG, priority 2007, dated 2013)

Legend:
Boophilus microplus [1] = test: whole plant or invertebrate; details: Rhipicephalus microplus, 168 h, read-out: activity (mortality in %)
Lucilia cuprina larvae = test: whole plant or invertebrate; details: in Equus caballus, read-out: activity (mortality in %)
Aulacophora femoralis = test: Test against Aulacophora femoralis (leaf dip); format: in vivo; details: 100 ppm of the active compound; second instar larvae; after 7 days
Description: (§1) To prepare an appropriate formulation of an active compound, 1 part by weight of the active compound was mixed with the aforementioned amount of the solvent containing the aforementioned amount of the emulsifier, and the mixture was diluted to a prescribed concentration with water.
Leaves of cucumbers were soaked in a diluted aqueous solution of the prescribed concentration of an active compound prepared in the same manner as in the aforementioned tests, air-dried, and placed a plastic cup containing sterilized black soil. Into this cup, 5 larvae of Aulacophora femoralis at second instar were then released. After 7 days, the number of dead larvae was counted to calculate the death rate.

Amblyomma hebraeum = test: Test against Amblyomma hebraeum (nymph dip); format: in vivo; details: 1008 h, read-out: activity (mortality in %)
Description: Nymphs of the tick Amblyomma hebraeum are placed in perforated plastic beakers and immersed in aqueous compound solution for one minute. Ticks are transferred to a filter paper in a Petri dish and incubated in a climate chamber for 42 days.

Spodoptera litura = test: Test against larva of Spodoptera litura (leaf dip); format: in vivo; details: 100 ppm of the active compound; third instar larvae; after 7 days
Description: Solvent: Dimethylformamide 3 parts by weight
Emulsifier: Polyoxyethylene alkyl phenyl ether 1 part by weight
as §1
Leaves of sweet potate were soaked in the test agent diluted to a prescribed concentration with water, air-dried, and placed in a dish of 9 cm in diameter. Into this dish, 10 larvae of Spodoptera litura at the third instar were released and kept in a room at constant temperature of 25° C. After 2 and 4 days, more leaves of sweet potato were added, and the number of dead larvae after 7 days was counted to calculate the death rate. In this test, the test results are presented as an average of the results of two dishes per section.

Musca domestica [2] = test: whole plant or invertebrate; details: read-out: activity (mortality in %)
[3] = test system: organic phosphorus agent- and carbamate agent-resistant Myzus persicae; test: Test against organic phosphorus agent- and carbamate agent-resistant Myzus persicae (spray); format: in vivo; details: 500 ppm of the active compound; adults on eggplant; 7 days at 28° C.
Description: as §1
About 30 to 50 adults of organic phosphorus agent- and carbamate agent-resistant Myzus persicae per seedling were inoculated to leaves of eggplants at two leaf stage cultured in a pot of 6 cm in diameter. One day after the inoculation, an ample amount of the diluted aqueous solution of the prescribed concentration of an active compound prepared in the same manner as in the aforementioned tests was sprayed with a spray gun. After the spraying, the pot was kept in a greenhouse at 28° C. for 7 days, the death rate was calculated. The test was duplicated.

Musca domestica [4] = test: Test against Musca domestica (Example 8-1, dimethylformamide); format: in vivo; details: 100 ppm of the active ingredient; adults, sugar/compound soaked sponge
Description: In order to prepare an appropriate formulation of an active compound, 10 mg of the active compound was dissolved in 0.5 mL of the above solvent, and the resultant mixture was diluted to a prescribed concentration with water.
As a preparatory stage, a mixture of sugar and an aqueous solution of a compound prepared as above was absorbed into a sponge of a given size, and the sponge was place into a test container. 10 adult insects of Musca domestica were placed into the container, and the container was covered with a perforated cover.
After a certain period of time, the death rate of Musca domestica is calculated. In this test, the death rate of 100% means death of all Musca domestica, while the death rate of 0% means that all the flies survived.

Boophilus microplus [5] = test: Test against Boophilus microplus (injection, Example 6-1, dimethylformamide); format: in vivo; details: dose of 20 ug/animal; injection into abdomen of fully fed adult females
Description: (§2) In order to prepare an appropriate formulation of an active compound, 10 mg of the active compound was dissolved in 0.5 mL of the aforementioned solvent, and the mixture was diluted to a prescribed concentration with water.
A solution of a compound formulated as above was injected into 5 fully fed adult female Boophilus microplus in their abdomen. These Boophilus microplus were transferred to a replica dish and kept in an incubating cabinet for a certain period of time.
After a certain period of time, the death rate of Boophilus microplus was calculated. In this test, the death rate of 100% means death of all Boophilus microplus, while the death rate of 0% means that all the mites survive.

Lucillia cuprina = test: Test against Lucillia cuprina (Example 7-1, dimethylformamide); format: in vivo; details: 100 ppm of the active ingredient; larvae on minced horsemeat
Description: as §2
About 20 to 30 larvae of Lucillia cuprina were placed into a test tube containing 1 cm^3 of minced horsemeat and 0.5 mL of an aqueous solution of a compound prepared as above.
After a certain period of time, the death rate of Lucillia cuprina was calculated. For this test, the death rate of 100% means death of all Lucillia cuprina, while the death rate of 0% means that all the flies survived.

Ctenocephalides felis = test: Test against Ctenocephalides felis (Example 5-1, blood feeding, dimethylformamide); format: in vivo; details: 100 ppm of the active ingredient; adults fed on treated blood
Description: In order to prepare an appropriate formulation of an active compound, 10 mg of the active compound is dissolved in 0.5 mL of the aforementioned solvent, and the mixture is diluted to a prescribed concentration with blood from domestic animals.
About 10 to 15 adults of Ctenocephalides felis were kept in a flea-specific container. Another container containing the blood solution containing the compound prepared as described above was covered with a laboratory film [[…]™]. The blood containing container was turned upside down and placed on the flea-specific container. This system enables Ctenocephalides felis to suck the blood in the container. The blood solution was kept at 37° C. and the flea-specific container was kept at room temperature. After a certain period of time, the death rate of Ctenocephalides felis was calculated. For this test, the death rate of 100% means death of all Ctenocephalides felis, while the death rate of 0% means that all the fleas survived.

[6] = test system: Ctenocephalides felis felis; test: Efficacy against fleas Ctenocephalides felis felis on cats; format: in vivo; details: 0.1 ml/kg (15 mg/kg) applied as Spot-on, once on day 0, weekly reinfestation
Description: On study days −4 and −1 prior to treatment cats are infested with about 100 adult not fed fleas (Ctenocephalides felis felis). The fleas are released on the neck on the fur of the cats
On study day 0 the flea infestation rate is checked by counting the fleas on the animals. The number of live fleas is recorded.
After flea counting the cats are treated with the investigational product. Cats of the control group are left untreated and serve as negative control group. The investigational veterinary product is applied dermally as one spot at a dose volume of 0.1 to 0.2 ml/kg body weight. Treatment is performed only once on study day 0. Only healthy cats are treated and included in the study.
Flea counts are performed on study days 1 and/or 2 where the cats are combed and the number of live fleas recorded. The results are documented.
In weekly intervals the cats are reinfested with about 100 adult not fed fleas per cat. One and/or two days after reinfestation the cats are combed and the live fleas counted for each animal. The results are recorded.
Efficacy should be given over a three to four week period
For the calculation of the effectiveness the modified Abbott formula is used: […]

Ixodes ricinus = test: Efficacy against ticks (Ixodes ricinus) on cats; format: in vivo; details: 0.1 ml/kg (15 mg/kg) applied as Spot on, once on day 0, weekly reinfestation
Description: On study days −4 and/or −1 cats are sedated with a combination of the active ingredients ketaminhydrochloride and acepromazinmaleat. After all cats are sedated (approximately after 10-15 minutes) the cats are placed in single cages and 50 Ixodes ricinus ticks (25 female and 25 male) are released on the fur on the back of the cat. The cats are sleeping for about 1 h to 1.5 h and restrained from grooming and removing the ticks.
On study days −3 or 0 tick infestation rate is checked, while the cats are placed on an examination table. The area around the head, ears, eyes, neck and lateral and ventral part of the body and between the toes is checked intensively. The number of live attached engorged ticks is counted and recorded. Dead ticks are removed.
After tick counting on study day 0 treatment is performed. Cats of the control group are left untreated and serve as negative control group. The investigational veterinary product is applied as one single spot on the skin at the base of the skull. Treatment is performed only once on day 0. […]
On study day 1 and/or 2 tick counts are performed and the number of life or dead attached ticks counted and recorded. […]
In weekly intervals each cat is infested with 50 Ixodes ricinus ticks (25 female and 25 male) and tick counts are performed 1 and/or 2 days after reinfestation. Life and dead attached ticks are counted and recorded. […]

Work on `CC(=S)NCc1ccc(C2=NOC(c3cc(Cl)cc(Cl)c3)(C(F)(F)F)C2)cc1Br` (centres unmarked) [1-44, N-{2-bromo-4-[5-(3,5-dichlorophenyl)-5-(trifluoromethyl)-4,5-dihydroisoxazol-3-yl]benzyl}ethanethioamide] yielded a mortality at 100 ppm (Boophilus microplus [1]) of at least 80%, a mortality at 100 ppm (Lucilia cuprina larvae) of at least 80% and a death rate (Aulacophora femoralis) of 100%. It also gave a mortality at 100 ppm (Amblyomma hebraeum) of at least 80%, a death rate (Spodoptera litura) of 100% and a mortality at 100 ppm (Musca domestica [2]) of at least 80%.
With `CC(=O)N(Cc1ccccn1)Cc1ccc(C2=NOC(c3cc(Cl)cc(Cl)c3)(C(F)(F)F)C2)cc1C#N` (centres unmarked) [1-61, N-{2-cyano-4-[5-(3,5-dichlorophenyl)-5-(trifluoromethyl)-4,5-dihydroisoxazol-3-yl]benzyl}-N-(pyridin-2-ylmethyl)acetamide] the mortality at 100 ppm (Lucilia cuprina larvae) was at least 80%, the death rate (Aulacophora femoralis) was 100% and the death rate (Spodoptera litura) was 100%. For the same molecule, the mortality at 100 ppm (Musca domestica [2]) was at least 80% and the death rate [3] was 100%.
With `CC(=O)N(Cc1ccccn1)Cc1ccc(C2=NOC(c3cc(Cl)cc(Cl)c3)(C(F)(F)F)C2)cc1C` (centres unmarked) [1-64] the death rate (Musca domestica [4]) was “more than 80%”, the death rate (Boophilus microplus [5]) was “more than 80%” and the death rate (Lucillia cuprina) was “more than 80%”. The death rate (Ctenocephalides felis) was “more than 80%”.
In the case of `CC(=O)NCc1ccc(C2=NOC(c3cc(Cl)c(Cl)c(Cl)c3)(C(F)(F)F)C2)cc1Br` (centres unmarked) [1-129], the “efficacy (modified Abbott formula)” value [6] is reported as over 95% and the “efficacy (modified Abbott formula)” value (Ixodes ricinus) is reported as over 90%.
